Experimental data from ChEMBL document CHEMBL1151633, “Biological Activities of Asterosaponins With Special Reference to Structure-Activity Relationships” (J Nat Prod, 1984).
In brackets after ≈: the same amount, converted by molar mass. Activity calls are given as the source filed them. No cut-off for these calls is given here.

Columns and labels:
[1] = tested on: Hemicentrotus pulcherrimus; assay: Inhibition of first cleavage in sea urchin embryo after 1.5 hrs by microscopy; format: functional
[2] = Toxicity in sea urchin embryo assessed as inhibition of embryo development before morula stage after 24 hrs by microscopy; conditions: hemicentrotus pulcherrimus
Patiria pectinifera [3] = assay: Effect on starfish embryo development assessed as abnormal embryo induction at bastula or gastula stage after 24 hrs by lactoorcein staining; format: functional
Patiria pectinifera [4] = assay: Inhibition of actin polymerization in starfish during embryogenesis
[5] = Toxicity in rabbit RBC assessed as hemolytic index; format: cell-based, Oryctolagus cuniculus; conditions: erythrocyte
Patiria pectinifera [6] = assay: Effect on starfish embryo development assessed as incomplete cytokinesis by lactoorcein staining; format: functional
Patiria pectinifera [7] = assay: Effect on starfish embryo development assessed as occurrence of multinuclei by lactoorcein staining; format: functional

CC(C)CC(=O)C[C@@](C)(O)[C@H]1CC[C@H]2[C@@H]3C[C@H](O[C@@H]4O[C@H](C)C(=O)[C@H](OC5O[C@H](C)[C@@H](OC6O[C@H](C)[C@H](O)[C@H](O)[C@H]6OC6O[C@H](C)[C@H](O)[C@H](O)[C@H]6O)[C@H](O)[C@H]5OC5O[C@H](C)[C@@H](O)[C@H](O)[C@H]5O)[C@H]4O)[C@H]4C[C@@H](OS(=O)(=O)[O-])CC[C@]4(C)C3=CC[C@@]21C.[Na+] (stereo not given in full)
ED50 [1]: 15 µg/mL
LD99 [2]: 5 µg/mL
ED50 (Patiria pectinifera [3]): 200 µg/mL
Activity (Patiria pectinifera [4]): Active
HI [5]: 17700

CC(C)CC(=O)C[C@@](C)(O)[C@H]1CC[C@H]2[C@@H]3C[C@H](OC4O[C@H](C)[C@@H](O)[C@H](OC5OC[C@@H](OC6O[C@H](CO)[C@H](O)[C@H](O)[C@H]6OC6O[C@H](C)[C@H](O)[C@H](OC7O[C@H](CO)[C@H](O)[C@H](O)[C@H]7O)[C@H]6O)[C@H](O)[C@H]5OC5O[C@H](C)[C@@H](O)[C@H](O)[C@H]5O)[C@H]4O)[C@H]4C[C@@H](OS(=O)(=O)[O-])CC[C@]4(C)C3=CC[C@@]21C.[Na+] (stereo not given in full)
ED50 [1]: 30 µg/mL
LD99 [2]: 10 µg/mL
ED50 (Patiria pectinifera [3]): 200 µg/mL
Activity (Patiria pectinifera [4]): Active
HI [5]: 5100

CC(C)=CC(=O)C[C@@](C)(O)[C@H]1CC[C@H]2[C@@H]3C[C@H](OC4O[C@H](C)[C@@H](O)[C@H](OC5OC[C@@H](OC6O[C@H](CO)[C@H](O)[C@H](O)[C@H]6OC6O[C@H](C)[C@H](O)[C@H](O)[C@H]6O)[C@H](O)[C@H]5OC5O[C@H](C)[C@@H](O)[C@H](O)[C@H]5O)[C@H]4O)[C@H]4C[C@@H](OS(=O)(=O)[O-])CC[C@]4(C)C3=CC[C@@]21C.[Na+] (stereo not given in full)
ED50 [1]: 15 µg/mL
LD99 [2]: 5 µg/mL
ED50 (Patiria pectinifera [3]): 100 µg/mL
Activity (Patiria pectinifera [4]): Active

CC(C)=CC(=O)C[C@@](C)(O)[C@H]1CC[C@H]2[C@@H]3C[C@H](OC4O[C@H](C)[C@@H](O)[C@H](OC5OC[C@@H](OC6O[C@H](C)[C@@H](O)[C@H](O)[C@H]6OC6O[C@H](C)[C@H](O)[C@H](O)[C@H]6O)[C@H](O)[C@H]5OC5O[C@H](C)[C@@H](O)[C@H](O)[C@H]5O)[C@H]4O)[C@H]4C[C@@H](O)CC[C@]4(C)C3=CC[C@@]21C (stereo not given in full)
ED50 [1]: 10 µg/mL (≈ 8.72 µM)
LD99 [2]: 10 µg/mL
ED50 (Patiria pectinifera [3]): 100 µg/mL (≈ 87.2 µM)
Activity (Patiria pectinifera [4]): Active

CC(C)CC(=O)C[C@@](C)(O)[C@H]1CC[C@H]2[C@@H]3C[C@H](OC4O[C@H](C)[C@@H](O)[C@H](OC5OC[C@@H](OC6O[C@H](C)[C@@H](O)[C@H](O)[C@H]6OC6O[C@H](C)[C@H](O)[C@H](O)[C@H]6O)[C@H](O)[C@H]5OC5O[C@H](C)[C@@H](O)[C@H](O)[C@H]5O)[C@H]4O)[C@H]4C[C@@H](OS(=O)(=O)O)CC[C@]4(C)C3=CC[C@@]21C.N (stereo not given in full)
ED50 [1]: 15 µg/mL
LD99 [2]: 5 µg/mL
ED50 (Patiria pectinifera [3]): 200 µg/mL
Activity (Patiria pectinifera [4]): Active

CC(C)CC(=O)C[C@@](C)(O)[C@H]1CC[C@H]2[C@@H]3C[C@H](OC4O[C@H](C)[C@@H](O)[C@H](OC5OC[C@@H](OC6O[C@H](C)[C@@H](O)[C@H](O)[C@H]6OC6O[C@H](C)[C@H](O)[C@H](OC7O[C@H](C)[C@H](O)[C@H](O)[C@H]7O)[C@H]6O)[C@H](O)[C@H]5OC5O[C@H](C)[C@@H](O)[C@H](O)[C@H]5O)[C@H]4O)[C@H]4C[C@@H](OS(=O)(=O)[O-])CC[C@]4(C)C3=CC[C@@]21C.[Na+] (stereo not given in full)
ED50 [1]: 15 µg/mL
LD99 [2]: 10 µg/mL
ED50 (Patiria pectinifera [3]): 200 µg/mL
Activity (Patiria pectinifera [4]): Active

CC(C)CC(=O)C[C@@](C)(O)[C@H]1CC[C@H]2[C@@H]3C[C@H](OC4O[C@H](C)[C@@H](O)[C@H](OC5OC[C@@H](OC6O[C@H](C)[C@@H](O)[C@H](O)[C@H]6OC6O[C@H](C)[C@H](O)[C@H](OC7O[C@H](C)[C@H](O)[C@H](O)[C@H]7O)[C@H]6O)[C@H](O)[C@H]5OC5O[C@H](C)[C@@H](O)[C@H](O)[C@H]5O)[C@H]4O)[C@H]4C[C@@H](O)CC[C@]4(C)C3=CC[C@@]21C (stereo not given in full)
ED50 [1]: 50 µg/mL (≈ 38.6 µM)
LD99 [2]: 10 µg/mL
ED50 (Patiria pectinifera [3]): 100 µg/mL (≈ 77.2 µM)
Activity (Patiria pectinifera [4]): Active
HI [5]: < 2550

CC(C)=CC(=O)C[C@@](C)(O)[C@H]1CC[C@H]2[C@@H]3C[C@H](OC4O[C@H](C)[C@@H](O)[C@H](OC5OC[C@@H](OC6O[C@H](C)[C@@H](O)[C@H](O)[C@H]6OC6O[C@H](C)[C@H](O)[C@H](O)[C@H]6O)[C@H](O)[C@H]5OC5O[C@H](C)[C@@H](O)[C@H](O)[C@H]5O)[C@H]4O)[C@H]4C[C@@H](OS(=O)(=O)[O-])CC[C@]4(C)C3=CC[C@@]21C.[Na+] (stereo not given in full)
ED50 [1]: 50 µg/mL
LD99 [2]: 50 µg/mL
ED50 (Patiria pectinifera [3]): 200 µg/mL
Activity (Patiria pectinifera [4]): Active
HI [5]: < 2420

CC(C)C(C)C(=O)C[C@@](C)(O)[C@H]1CC[C@H]2[C@@H]3C[C@H](OC4O[C@H](C)[C@@H](O)[C@H](OC5OC[C@@H](OC6O[C@H](CO)[C@H](O)[C@H](O)[C@H]6OC6O[C@H](C)[C@H](O)[C@H](O)[C@H]6O)[C@H](O)[C@H]5OC5O[C@H](C)[C@@H](O)[C@H](O)[C@H]5O)[C@H]4O)[C@H]4C[C@@H](OS(=O)(=O)[O-])CC[C@]4(C)C3=CC[C@@]21C.[Na+] (stereo not given in full)
ED50 [1]: 5 µg/mL
LD99 [2]: 2 µg/mL
ED50 (Patiria pectinifera [3]): 50 µg/mL
Activity (Patiria pectinifera [6]): Active
Activity (Patiria pectinifera [7]): Active
Activity (Patiria pectinifera [4]): Active
HI [5]: 31400

CC(C)CC(=O)C[C@@](C)(O)[C@H]1CC[C@H]2[C@@H]3C[C@H](OC4O[C@H](C)[C@@H](O)[C@H](OC5OC[C@@H](OC6O[C@H](CO)[C@H](O)[C@H](O)[C@H]6OC6O[C@H](C)[C@H](O)[C@H](OC7O[C@H](C)[C@H](O)[C@H](O)[C@H]7O)[C@H]6O)[C@H](O)[C@H]5OC5O[C@H](C)[C@@H](O)[C@H](O)[C@H]5O)[C@H]4O)[C@H]4C[C@@H](OS(=O)(=O)[O-])CC[C@]4(C)C3=CC[C@@]21C.[Na+] (stereo not given in full)
ED50 [1]: 15 µg/mL
LD99 [2]: 5 µg/mL
ED50 (Patiria pectinifera [3]): 200 µg/mL
Activity (Patiria pectinifera [4]): Active
HI [5]: 11400

CC(C)C(C)C(=O)C[C@@](C)(O)[C@H]1CC[C@H]2[C@@H]3C[C@H](OC4O[C@H](C)[C@@H](O)[C@H](OC5OC[C@@H](OC6O[C@H](CO)[C@H](O)[C@H](O)[C@H]6OC6O[C@H](C)[C@H](O)[C@H](OC7O[C@H](C)[C@H](O)[C@H](O)[C@H]7O)[C@H]6O)[C@H](O)[C@H]5OC5O[C@H](C)[C@@H](O)[C@H](O)[C@H]5O)[C@H]4O)[C@H]4C[C@@H](OS(=O)(=O)[O-])CC[C@]4(C)C3=CC[C@@]21C.[Na+] (stereo not given in full)
ED50 [1]: 5 µg/mL
LD99 [2]: 2 µg/mL
ED50 (Patiria pectinifera [3]): 100 µg/mL
Activity (Patiria pectinifera [4]): Active
HI [5]: 21500

CC(C)CC(=O)C[C@@](C)(O)[C@H]1CC[C@H]2[C@@H]3C[C@H](OC4O[C@H](CO)[C@@H](O)[C@H](OC5O[C@H](C)[C@@H](OC6O[C@H](C)[C@@H](O)[C@H](O)[C@H]6OC6O[C@H](C)[C@H](O)[C@H](O)[C@H]6O)[C@H](O)[C@H]5OC5O[C@H](C)[C@@H](O)[C@H](O)[C@H]5O)[C@H]4O)[C@H]4C[C@@H](OS(=O)(=O)[O-])CC[C@]4(C)C3=CC[C@@]21C.[Na+] (stereo not given in full)
ED50 [1]: 5 µg/mL
LD99 [2]: 5 µg/mL
ED50 (Patiria pectinifera [3]): 50 µg/mL
Activity (Patiria pectinifera [4]): Active

CC(C)C(C)C(=O)C[C@@](C)(O)[C@H]1CC[C@H]2[C@@H]3C[C@H](OC4O[C@H](C)[C@@H](O)[C@H](OC5OC[C@@H](OC6O[C@H](C)[C@@H](O)[C@H](O)[C@H]6OC6O[C@H](C)[C@H](O)[C@H](OC7O[C@H](C)[C@H](O)[C@H](O)[C@H]7O)[C@H]6O)[C@H](O)[C@H]5OC5O[C@H](C)[C@@H](O)[C@H](O)[C@H]5O)[C@H]4O)[C@H]4C[C@@H](OS(=O)(=O)[O-])CC[C@]4(C)C3=CC[C@@]21C.[Na+] (stereo not given in full)
ED50 [1]: 10 µg/mL
LD99 [2]: 5 µg/mL
ED50 (Patiria pectinifera [3]): 200 µg/mL
Activity (Patiria pectinifera [4]): Active
HI [5]: 10700

CC(C)CC(=O)C[C@@](C)(O)[C@H]1CC[C@H]2[C@@H]3C[C@H](OC4O[C@H](C)[C@@H](O)[C@H](OC5OC[C@@H](OC6O[C@H](CO)[C@@H](O)[C@H](O)[C@H]6OC6O[C@H](C)[C@H](O)[C@H](O)[C@H]6O)[C@H](O)[C@H]5OC5O[C@H](C)[C@@H](O)[C@H](O)[C@H]5O)[C@H]4O)[C@H]4C[C@@H](OS(=O)(=O)[O-])CC[C@]4(C)C3=CC[C@@]21C.[Na+] (stereo not given in full)
ED50 [1]: 15 µg/mL
LD99 [2]: 2 µg/mL
ED50 (Patiria pectinifera [3]): 200 µg/mL
Activity (Patiria pectinifera [4]): Active

CC(=O)[C@H]1CC[C@H]2[C@@H]3C[C@H](OC4O[C@H](C)[C@@H](O)[C@H](OC5OC[C@@H](OC6O[C@H](CO)[C@H](O)[C@H](O)[C@H]6OC6O[C@H](C)[C@H](O)[C@H](O)[C@H]6O)[C@H](O)[C@H]5OC5O[C@H](C)[C@@H](O)[C@H](O)[C@H]5O)[C@H]4O)[C@H]4C[C@@H](OS(=O)(=O)[O-])CC[C@]4(C)C3=CC[C@]12C.[Na+] (stereo not given in full)
ED50 [1]: > 50 µg/mL
LD99 [2]: > 50 µg/mL
ED50 (Patiria pectinifera [3]): 100 µg/mL
Activity (Patiria pectinifera [4]): Active
HI [5]: < 2270

CC(C)=CC(=O)C[C@@](C)(O)[C@H]1CC[C@H]2[C@@H]3C[C@H](OC4O[C@H](CO)[C@@H](O)[C@H](OC5O[C@H](C)[C@@H](OC6O[C@H](C)[C@@H](O)[C@H](O)[C@H]6OC6O[C@H](C)[C@H](O)[C@H](O)[C@H]6O)[C@H](O)[C@H]5OC5O[C@H](C)[C@@H](O)[C@H](O)[C@H]5O)[C@H]4O)[C@H]4C[C@@H](OS(=O)(=O)[O-])CC[C@]4(C)C3=CC[C@@]21C.[Na+] (stereo not given in full)
ED50 [1]: 10 µg/mL
LD99 [2]: 5 µg/mL
ED50 (Patiria pectinifera [3]): 50 µg/mL
Activity (Patiria pectinifera [4]): Active

CC(C)CC(=O)C[C@@](C)(O)[C@H]1CC[C@H]2[C@@H]3C[C@H](OC4O[C@H](C)[C@@H](O)[C@H](OC5OC[C@@H](OC6O[C@H](CO)[C@H](O)[C@H](O)[C@H]6OC6O[C@H](C)[C@H](O)[C@H](O)[C@H]6O)[C@H](O)[C@H]5OC5O[C@H](C)[C@@H](O)[C@H](O)[C@H]5O)[C@H]4O)[C@H]4C[C@@H](OS(=O)(=O)[O-])CC[C@]4(C)C3=CC[C@@]21C.[Na+] (stereo not given in full)
ED50 [1]: 10 µg/mL
LD99 [2]: 5 µg/mL
ED50 (Patiria pectinifera [3]): 100 µg/mL
Activity (Patiria pectinifera [4]): Active
HI [5]: 22000
